Data as given in PubChem BioAssay AID1963983 (Molecular Pharmacology Branch, DTP, NCI, 2024).

Tested on: 186277-243-T-J2-PDC multi-cell spheroid viability
Test: Anticancer human tumor 186277-243-T-J2-PDC patient-derived colon adenocarcinoma cell line growth inhibition [PI3K]
Conditions: for IC50: curve of first compound; for viability, T/C: stronger effect = lower value
Summary of the method: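 Complex 3D spheroids (cancer cells + endothelial HUVEC + mesenchymal stem cells); drug pairs of targeted agent x inavolisib/alpelisib/duvelisib/copanlisib; half-log series from ~Cmax, max 10 microM if Cmax unknown; endpoint viability.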

[1] = second compound 0.0316 µM, first compound 0.00949 µM
[2] = second compound 0.0316 µM, first compound 0.03 µM
[3] = second compound 0.0316 µM, first compound 0.0949 µM
[4] = second compound 0.0316 µM, first compound 0.3 µM
[5] = second compound 0.0316 µM, first compound 0.949 µM
[6] = second compound 0.0316 µM, first compound 3 µM
[7] = second compound 0.1 µM, first compound 0.00949 µM
[8] = second compound 0.1 µM, first compound 0.03 µM
[9] = second compound 0.1 µM, first compound 0.0949 µM
[10] = second compound 0.1 µM, first compound 0.3 µM
[11] = second compound 0.1 µM, first compound 0.949 µM
[12] = second compound 0.1 µM, first compound 3 µM
[13] = second compound 0.316 µM, first compound 0.00949 µM
[14] = second compound 0.316 µM, first compound 0.03 µM
[15] = second compound 0.316 µM, first compound 0.0949 µM
[16] = second compound 0.316 µM, first compound 0.3 µM
[17] = second compound 0.316 µM, first compound 0.949 µM
[18] = second compound 0.316 µM, first compound 3 µM
[19] = second compound 1 µM, first compound 0.00949 µM
[20] = second compound 1 µM, first compound 0.03 µM
[21] = second compound 1 µM, first compound 0.0949 µM
[22] = second compound 1 µM, first compound 0.3 µM
[23] = second compound 1 µM, first compound 0.949 µM
[24] = second compound 1 µM, first compound 3 µM
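Further: spheroids exposed to compounds for seven days before viability reading.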
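Wherever viability, T/C is given: 100% = DMSO vehicle control viability.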

**Q.** What does the source list for `Cn1cnc2c(F)c(Nc3ccc(Br)cc3Cl)c(C(=O)NOCCO)cc21` + COc1c(OCCCN2CCOCC2)ccc2c3n(c(=NC(=O)c4cnc(N)nc4)nc12)CCN3?
**A.** IC50 (second compound 0.00316 µM): 73.9 nM; IC50 (second compound 0.01 µM): 29.9 nM; IC50 (second compound 0.0316 µM): < 9.49 nM; IC50 (second compound 0.1 µM): < 9.49 nM; IC50 (second compound 0.316 µM): < 9.49 nM; IC50 (second compound 1 µM): < 9.49 nM; viability, T/C (second compound 0.00316 µM, first compound 0.00949 µM): 91.7%; viability, T/C (second compound 0.00316 µM, first compound 0.03 µM): 74.6%; viability, T/C (second compound 0.00316 µM, first compound 0.0949 µM): 38.3%; viability, T/C (second compound 0.00316 µM, first compound 0.3 µM): 28.9%; viability, T/C (second compound 0.00316 µM, first compound 0.949 µM): 13.1%; viability, T/C (second compound 0.00316 µM, first compound 3 µM): 7.3%; viability, T/C (second compound 0.01 µM, first compound 0.00949 µM): 81.6%; viability, T/C (second compound 0.01 µM, first compound 0.03 µM): 50%; viability, T/C (second compound 0.01 µM, first compound 0.0949 µM): 24.9%; viability, T/C (second compound 0.01 µM, first compound 0.3 µM): 11.7%; viability, T/C (second compound 0.01 µM, first compound 0.949 µM): 8.98%; viability, T/C (second compound 0.01 µM, first compound 3 µM): 5.03%; viability, T/C [1]: 28.9%; viability, T/C [2]: 20.9%; viability, T/C [3]: 13.5%; viability, T/C [4]: 8.43%; viability, T/C [5]: 3.94%; viability, T/C [6]: 2.23%; viability, T/C [7]: 14.6%; viability, T/C [8]: 7.23%; viability, T/C [9]: 5.32%; viability, T/C [10]: 2.22%; viability, T/C [11]: 0.6%; viability, T/C [12]: 0.24%; viability, T/C [13]: 2.44%; viability, T/C [14]: 1.09%; viability, T/C [15]: 1.66%; viability, T/C [16]: 0.37%; viability, T/C [17]: 0.45%; viability, T/C [18]: 0.11%; viability, T/C [19]: 0.41%; viability, T/C [20]: 0.28%; viability, T/C [21]: 0.32%; viability, T/C [22]: 0.14%; viability, T/C [23]: 0.15%; viability, T/C [24]: 0.18%

**Q.** Which IC50 (second compound 0.0316 µM) does the source give for `Cn1cnc2c(F)c(Nc3ccc(Br)cc3Cl)c(C(=O)NOCCO)cc21` + CC(Nc1ncnc2nc[nH]c12)c1cc2cccc(Cl)c2c(=O)n1-c1ccccc1 here?
**A.** 175 nM

**Q.** And the IC50 (second compound 0.1 µM)?
**A.** 162 nM

**Q.** And the IC50 (second compound 0.316 µM)?
**A.** 148 nM

**Q.** What about the IC50 (second compound 1 µM) of the same compound?
**A.** 114 nM

**Q.** And the IC50 (second compound 3.16 µM)?
**A.** 62.7 nM

**Q.** What about the IC50 (second compound 10 µM) of the same compound?
**A.** 23.1 nM

**Q.** What about the viability, T/C [1] of the same compound?
**A.** 93%

**Q.** What about the viability, T/C [2] of the same compound?
**A.** 91.3%

**Q.** What about the viability, T/C [3] of the same compound?
**A.** 58.8%

**Q.** What about the viability, T/C [4] of the same compound?
**A.** 38.9%

**Q.** What about the viability, T/C [5] of the same compound?
**A.** 23.3%

**Q.** What about the viability, T/C [6] of the same compound?
**A.** 10.3%

**Q.** And the viability, T/C [7]?
**A.** 115%

**Q.** What about the viability, T/C [8] of the same compound?
**A.** 92.3%

**Q.** And the viability, T/C [9]?
**A.** 56.4%

**Q.** And the viability, T/C [10]?
**A.** 40.1%

**Q.** And the viability, T/C [11]?
**A.** 22.2%

**Q.** What about the viability, T/C [12] of the same compound?
**A.** 12%

**Q.** What about the viability, T/C [13] of the same compound?
**A.** 91.1%

**Q.** What about the viability, T/C [14] of the same compound?
**A.** 82.4%

**Q.** What about the viability, T/C [15] of the same compound?
**A.** 57.4%

**Q.** What about the viability, T/C [16] of the same compound?
**A.** 37.5%

**Q.** What about the viability, T/C [17] of the same compound?
**A.** 15.3%

**Q.** And the viability, T/C [18]?
**A.** 12.5%

**Q.** What about the viability, T/C [19] of the same compound?
**A.** 112%

**Q.** And the viability, T/C [20]?
**A.** 82.5%

**Q.** What about the viability, T/C [21] of the same compound?
**A.** 49.7%

**Q.** And the viability, T/C [22]?
**A.** 35.1%

**Q.** What about the viability, T/C [23] of the same compound?
**A.** 19.5%

**Q.** What about the viability, T/C [24] of the same compound?
**A.** 9.14%

**Q.** What about the viability, T/C (second compound 3.16 µM, first compound 0.00949 µM) of the same compound?
**A.** 104%

**Q.** What about the viability, T/C (second compound 3.16 µM, first compound 0.03 µM) of the same compound?
**A.** 64.1%

**Q.** And the viability, T/C (second compound 3.16 µM, first compound 0.0949 µM)?
**A.** 39.9%

**Q.** What about the viability, T/C (second compound 3.16 µM, first compound 0.3 µM) of the same compound?
**A.** 28.5%

**Q.** And the viability, T/C (second compound 3.16 µM, first compound 0.949 µM)?
**A.** 18.3%

**Q.** What about the viability, T/C (second compound 3.16 µM, first compound 3 µM) of the same compound?
**A.** 7.22%

**Q.** What about the viability, T/C (second compound 10 µM, first compound 0.00949 µM) of the same compound?
**A.** 75.7%

**Q.** And the viability, T/C (second compound 10 µM, first compound 0.03 µM)?
**A.** 41.1%

**Q.** And the viability, T/C (second compound 10 µM, first compound 0.0949 µM)?
**A.** 25.4%

**Q.** And the viability, T/C (second compound 10 µM, first compound 0.3 µM)?
**A.** 14.1%

**Q.** What about the viability, T/C (second compound 10 µM, first compound 0.949 µM) of the same compound?
**A.** 8.69%

**Q.** What about the viability, T/C (second compound 10 µM, first compound 3 µM) of the same compound?
**A.** 5.17%

**Q.** For `Cn1ncc(Cl)c1-c1cc(C(=O)NC(CN)Cc2cccc(F)c2)sc1Cl` (stereo unspecified) + CC(Nc1ccc2c(c1)OCCn1cc(N3C(=O)OCC3C(F)F)nc1-2)C(N)=O, which IC50 (second compound 0.00316 µM) is on record?
**A.** 608 nM

**Q.** And the IC50 (second compound 0.01 µM)?
**A.** 422 nM

**Q.** What about the IC50 (second compound 0.0316 µM) of the same compound?
**A.** 339 nM

**Q.** And the IC50 (second compound 0.1 µM)?
**A.** 226 nM

**Q.** And the IC50 (second compound 0.316 µM)?
**A.** 64.6 nM

**Q.** What about the IC50 (second compound 1 µM) of the same compound?
**A.** < 31.6 nM

**Q.** And the viability, T/C (second compound 0.00316 µM, first compound 0.0316 µM)?
**A.** 82.7%

**Q.** And the viability, T/C (second compound 0.00316 µM, first compound 0.1 µM)?
**A.** 73.8%

**Q.** What about the viability, T/C (second compound 0.00316 µM, first compound 0.316 µM) of the same compound?
**A.** 48.5%

**Q.** What about the viability, T/C (second compound 0.00316 µM, first compound 1 µM) of the same compound?
**A.** 45.4%

**Q.** What about the viability, T/C (second compound 0.00316 µM, first compound 3.16 µM) of the same compound?
**A.** 39.2%

**Q.** What about the viability, T/C (second compound 0.00316 µM, first compound 10 µM) of the same compound?
**A.** 10.5%

**Q.** What about the viability, T/C (second compound 0.01 µM, first compound 0.0316 µM) of the same compound?
**A.** 106%

**Q.** What about the viability, T/C (second compound 0.01 µM, first compound 0.1 µM) of the same compound?
**A.** 76.3%

**Q.** What about the viability, T/C (second compound 0.01 µM, first compound 0.316 µM) of the same compound?
**A.** 44.6%

**Q.** What about the viability, T/C (second compound 0.01 µM, first compound 1 µM) of the same compound?
**A.** 44.1%

**Q.** What about the viability, T/C (second compound 0.01 µM, first compound 3.16 µM) of the same compound?
**A.** 34.3%

**Q.** And the viability, T/C (second compound 0.01 µM, first compound 10 µM)?
**A.** 8.87%

**Q.** What about the viability, T/C (second compound 0.0316 µM, first compound 0.0316 µM) of the same compound?
**A.** 103%

**Q.** And the viability, T/C (second compound 0.0316 µM, first compound 0.1 µM)?
**A.** 88%

**Q.** What about the viability, T/C (second compound 0.0316 µM, first compound 0.316 µM) of the same compound?
**A.** 45.6%

**Q.** And the viability, T/C (second compound 0.0316 µM, first compound 1 µM)?
**A.** 29%

**Q.** And the viability, T/C (second compound 0.0316 µM, first compound 3.16 µM)?
**A.** 23%

**Q.** What about the viability, T/C (second compound 0.0316 µM, first compound 10 µM) of the same compound?
**A.** 5.6%

**Q.** What about the viability, T/C (second compound 0.1 µM, first compound 0.0316 µM) of the same compound?
**A.** 88.5%

**Q.** And the viability, T/C (second compound 0.1 µM, first compound 0.1 µM)?
**A.** 77.6%

**Q.** What about the viability, T/C (second compound 0.1 µM, first compound 0.316 µM) of the same compound?
**A.** 36.3%

**Q.** And the viability, T/C (second compound 0.1 µM, first compound 1 µM)?
**A.** 21.9%

**Q.** And the viability, T/C (second compound 0.1 µM, first compound 3.16 µM)?
**A.** 16.6%

**Q.** And the viability, T/C (second compound 0.1 µM, first compound 10 µM)?
**A.** 4.47%

**Q.** What about the viability, T/C (second compound 0.316 µM, first compound 0.0316 µM) of the same compound?
**A.** 64.6%

**Q.** And the viability, T/C (second compound 0.316 µM, first compound 0.1 µM)?
**A.** 39.7%

**Q.** What about the viability, T/C (second compound 0.316 µM, first compound 0.316 µM) of the same compound?
**A.** 27.7%

**Q.** And the viability, T/C (second compound 0.316 µM, first compound 1 µM)?
**A.** 14.7%

**Q.** And the viability, T/C (second compound 0.316 µM, first compound 3.16 µM)?
**A.** 13.5%

**Q.** And the viability, T/C (second compound 0.316 µM, first compound 10 µM)?
**A.** 3.25%

**Q.** What about the viability, T/C (second compound 1 µM, first compound 0.0316 µM) of the same compound?
**A.** 45.1%

**Q.** What about the viability, T/C (second compound 1 µM, first compound 0.1 µM) of the same compound?
**A.** 25.5%

**Q.** And the viability, T/C (second compound 1 µM, first compound 0.316 µM)?
**A.** 12.5%

**Q.** And the viability, T/C (second compound 1 µM, first compound 1 µM)?
**A.** 11%

**Q.** And the viability, T/C (second compound 1 µM, first compound 3.16 µM)?
**A.** 10.1%

**Q.** What about the viability, T/C (second compound 1 µM, first compound 10 µM) of the same compound?
**A.** 1.75%
